Values joined by “and” are separate entries in the source; they are usually repeats but may differ in a detail not shown here. Equal entries are not always repeated.

Common to all, as to type: binding
The target in assay [1] is T1, HEPN domain of sacsin (GST-HEPN) (Homo sapiens, UniProt Q9NZJ4).
T1 construct: The HEPN domain (residues 4441–4579) was purified as in Kozlov et al; made in house; host or cells: E. coli BL21
T1 sequence (Q9NZJ4 4441-4579): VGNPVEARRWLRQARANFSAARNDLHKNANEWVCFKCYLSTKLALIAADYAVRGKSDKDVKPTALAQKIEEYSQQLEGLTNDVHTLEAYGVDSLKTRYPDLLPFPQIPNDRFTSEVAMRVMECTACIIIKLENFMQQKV
The assay can be described thus: FP competition assay (displacement of F12-ATP from GST-HEPN). The procedure: […] The probe concentration was chosen to be the minimum concentration required to generate a sigmoidal binding curve. […] Next, a serial dilution of the competitor compounds (nucleotides and nucleotide analogs) starting at 10 mM were added. The fluorescence polarization signal in each well was measured on a SpectraMax M5e Microplate Reader.

Assay [2] deals with T2, 15N-HEPN (sacsin HEPN domain) (Homo sapiens, UniProt Q9NZJ4).
T2 construct: The HEPN domain (residues 4441–4579) was purified as in Kozlov et al; GST (N, cleaved yes); made in house; host or cells: E. coli BL21 (M9 minimal medium with 15NH4Cl)
T2 sequence (Q9NZJ4 4441-4579): T1 sequence (Q9NZJ4 4441-4579)
The assay can be described thus: 1H-15N HSQC NMR titration. As to conditions: 100-400 μM 15N-HEPN, 20 mM Bis-tris pH 6.50, 70 mM NaCl, 303 K. The procedure: Between 100 μM and 400 μM ^15N-HEPN were used for NMR titration experiments. Heteronuclear single quantum correlation (HSQC) spectra were acquired in 20 mM Bis-tris pH 6.50 and 70 mM NaCl at 303 K using Varian 800 MHz or Bruker 600 MHz NMR spectrometers. The data were processed by NMRPipe. NMR spectra were then generated and analyzed by NMRView. The 2D HSQC spectra were overlaid with previously assigned spectrum of HEPN. The combined chemical shift perturbations in the ^1H and ^15N dimensions of each peak, calculated as (ΔδH ^2 + (0.2 × ΔδN)^2)^0.5, were plotted against the residue number.

Another assay concerns the target GST (Schistosoma japonicum, UniProt P08515). Kind of assay: GST control FP titration. The note with it: 0.5 μM MABA-ATP or 5 nM F12-ATP titrated against GST. The procedure:
(§1) A fixed concentration of the probe (0.5 μM MABA-ATP or 5 nM F12-ATP) was put in each well followed by a serial dilution of GST-HEPN starting at 10 μM. The assay was conducted in 20 mM Bis-tris pH 6.50 and 100 mM NaCl and the final volume in each well was 100 μl. The total fluorescence and fluorescence polarization signals of each well were recorded on a SpectraMax M5e Microplate Reader at the optimal excitation and emission wavelengths of the probes. A titration curve was generated by plotting the fluorescence polarization signals as milli-polarization units (mP) against a log scale of GST-HEPN concentration (μM).
Supplementary file pone.0137298.s002.tif: S2 Fig GST control titration. 0.5 μM MABA-ATP and 5 nM F12-ATP were titrated against various concentrations of GST to verify whether GST contributes to the observed FP signal in the presence of GST-HEPN. […] (TIF) Click here for additional data file.

Assay [3] addresses T1, HEPN domain of sacsin (GST-HEPN). The assay can be described thus: FP titration assay (fluorescent ATP probe vs GST-HEPN). The note with it: for Kd: 20 mM Bis-tris pH 6.50, 100 mM NaCl. The procedure: N-methylanthraniloyl 8[(4-amino)butyl]-amino-ATP (MABA-ATP) and fluorescein-12-ATP (F12-ATP) were purchased from Jena Bioscience and PerkinElmer, respectively. The excitation and emission wavelengths of MABA-ATP were reported to be 335 nm and 440 nm, and those of F12-ATP were reported to be 496 nm and 517 nm by the commercial suppliers. The optimal excitation and emission wavelengths were determined under FP assay conditions using 0.2 μM MABA-ATP and 3.3 nM F12-ATP in 100 mM NaCl, 20 mM Bis-tris, pH 6.5.
as §1

Setting [4] is: HTS hit confirmation, 5 nM F12-ATP and 200 nM GST-HEPN, read-out: Binding Affinity for HEPN.
Setting [5] is: 5 nM F12-ATP and 120 nM GST-HEPN, read-out: affinity for GST-HEPN estimated from FP competition curve, Kd.

Chain of GST (P08515 whole entry): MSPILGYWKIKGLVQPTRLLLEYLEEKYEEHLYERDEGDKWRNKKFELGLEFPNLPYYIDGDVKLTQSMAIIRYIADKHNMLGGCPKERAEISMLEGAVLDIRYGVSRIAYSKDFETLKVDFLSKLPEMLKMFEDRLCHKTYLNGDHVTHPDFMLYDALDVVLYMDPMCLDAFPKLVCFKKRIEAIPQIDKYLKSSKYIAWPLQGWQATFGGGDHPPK

With `Cc1ccccc1NS(=O)(=O)c1ccc(NC(=O)c2n[nH]c([N+](=O)[O-])c2Br)cc1` [AK968], in assay [1] (setting [4]), the Kd turned out to be 2.1 µM. Besides, the “binding to HEPN observed by NMR (chemical shift perturbations)” value (“binding … (chemical shift perturbations)” for short) in assay [2] is listed as “Binding was observed by NMR”.
As for `Nc1ncnc2c1ncn2[C@@H]1O[C@H](COP(=O)(O)OP(=O)(O)OP(=O)(O)OP(=O)(O)OC[C@H]2O[C@@H](n3cnc4c(N)ncnc43)[C@H](O)[C@@H]2O)[C@@H](O)[C@H]1O` [Ap4A, p1,-p4-di(adenosine-5´) tetraphosphate], the Kd in assay [1] (setting [5]) is 20.5 µM.
Same read-out and setting: as for `Nc1ncnc2c1ncn2[C@@H]1O[C@H](COP(=O)(O)OP(=O)(O)O)[C@@H](O)[C@H]1O` [ADP, adenosine 5´-diphosphate], the figure is 19.2 µM.
With fluorescein-12-ATP [F12-ATP], at GST, the “binding of probe to GST alone” value is listed as “did not show binding”. Further, in assay [3] (5 nM F12-ATP titrated against GST-HEPN, read-out: binding affinity of the probe estimated from the titration curve (KD1)), the Kd was 78 nM and ~78 nM. In assay [3] (F12-ATP vs GST-HEPN titration in the presence of 1 mM MgCl2 compared to without MgCl2), the “fold decrease in affinity upon the addition of MgCl2” value was determined as 10 fold. In addition, the “fold higher affinity relative to ATP” value in assay [1] is given as 65 fold. In addition, in assay [2], the “binding … (chemical shift perturbations)” value is recorded as “interacts with all HEPN residues involved in GTP-binding”.
For the compound `Nc1ncnc2c1ncn2[C@@H]1O[C@H](COP(=O)(O)O)[C@@H](O)[C@H]1O` [AMP, adenosine 5´-monophosphate], the Kd in assay [1] (setting [5]) was 102 µM.
Still for that read-out and setting: as for `O=P(O)(O)OC1C(OP(=O)(O)O)C(OP(=O)(O)O)C(OP(=O)(O)O)C(OP(=O)(O)O)C1OP(=O)(O)O` (stereo not drawn) [IP6, phytic acid/myo-inositol hexakis(dihydrogen phosphate)], the figure is 8.46 µM.
In the case of `CC(C)(COP(=O)(O)OP(=O)(O)OC[C@H]1O[C@@H](n2cnc3c(N)ncnc32)[C@H](O)[C@@H]1OP(=O)(O)O)[C@@H](O)C(=O)NCCC(=O)NCCS` [CoA, coenzyme A], the Kd in assay [1] (setting [5]) is 5.2 µM.
Take `O=C(Nc1cccc2c(=O)[nH][nH]c(=O)c12)c1ccc(=O)oc1` [AN652]: the Kd in assay [1] (setting [4]) was 2.8 µM. Also, the “binding … (chemical shift perturbations)” value in assay [2] is recorded as “Binding was observed by NMR”.
Consider `O=C(O)CN(CCN(CC(=O)O)CC(=O)O)CC(=O)O` [EDTA], for which the “fold weaker affinity than GTP” value in assay [1] is ~ 500 fold. Also, the Kd in assay [1] (setting [5]) is ~510 µM and 510 µM. Further, the “binding … (chemical shift perturbations)” value in assay [2] is “interacts with GTP- and malonate ion-binding site”.
On to `Nc1ncnc2c1ncn2C1OC(COP(=O)(O)OP(=O)(O)OCC2OC(O)C(O)C2O)C(O)C1O` (stereo not drawn) [ADP-ribose, adenosine 5´-diphosphoribose], for which the Kd in assay [1] (setting [5]) is 205 µM.
Consider `O=c1c(C(c2ccc3c(c2)OCO3)c2c(O)nc3n(c2=O)CCS3)c(O)nc2n1CCS2` [AN670], for which, in assay [1], the “fold higher affinity than the other two HTS hits AK968 and AN652” value was “two- to three-fold”. Moreover, the Kd in assay [1] (setting [4]) was found to be 1.1 µM. Further, the “binding … (chemical shift perturbations)” value in assay [2] is given as “Binding was observed by NMR”.
Consider `Nc1nc2c(ncn2[C@@H]2O[C@H](COP(=O)(O)OP(=O)(O)OP(=O)(O)OP(=O)(O)OC[C@H]3O[C@@H](n4cnc5c(=O)[nH]c(N)nc54)[C@H](O)[C@@H]3O)[C@@H](O)[C@H]2O)c(=O)[nH]1` [Gp4G, p1, p4-di(guanosine-5´) tetraphosphate], for which the Kd in assay [1] (setting [5]) was 1.23 µM.
As for `Nc1nc2c(ncn2[C@@H]2O[C@H](COP(=O)(O)OP(=O)(O)OP(=O)(O)O)[C@@H](O)[C@H]2O)c(=O)[nH]1` [GTP, guanosine 5´-triphosphate], the “fold higher affinity relative to ATP” value in assay [1] is given as “approximately 6 fold”. For the same compound, the Kd in assay [1] (setting [5]) was 0.81 µM. Also, the “binding … (chemical shift perturbations)” value in assay [2] was “binds to HEPN at its dimerization surface”.
Regarding `Nc1nc2c(ncn2[C@@H]2O[C@H](COP(=O)(O)OP(=O)(O)OP(=O)(O)OP(=O)(O)O)[C@@H](O)[C@H]2O)c(=O)[nH]1` [G-tetra-P, guanosine 5´-tetraphosphate], in assay [1], the “fold higher affinity for HEPN than GTP” value was “about two-fold”. Moreover, the Kd in assay [1] (setting [5]) was 0.47 µM. Further, the “binding … (chemical shift perturbations)” value in assay [2] is “Changes in chemical shifts were observed for most GTP-binding residues”.
For the compound `CNc1ccccc1C(=O)NCCCCNc1nc2c(N)ncnc2n1[C@@H]1O[C@H](COP(=O)(O)OP(=O)(O)OP(=O)(O)O)[C@@H](O)[C@H]1O` [MABA-ATP, N-methylanthraniloyl 8[(4-amino)butyl]-amino-ATP], the “binding of probe to GST alone” value at GST is “did not show binding”. The Kd in assay [3] (0.5 μM MABA-ATP titrated against GST-HEPN, read-out: binding affinity of the probe estimated from the titration curve) was ~3000 nM and 3000 nM.
With `Nc1nc2c(ncn2[C@@H]2O[C@H](COP(=O)(O)OP(=O)(O)O)[C@@H](O)[C@H]2O)c(=O)[nH]1` [GDP, guanosine 5´-diphosphate], in assay [1] (setting [5]), the Kd is 1.23 µM.
Still for that read-out and setting: with `Nc1ncnc2c1ncn2[C@@H]1O[C@H](COP(=O)(O)OP(=O)(O)OP(=O)(O)OC[C@H]2O[C@@H](n3cnc4c(N)ncnc43)[C@H](O)[C@@H]2O)[C@@H](O)[C@H]1O` [Ap3A, p1, p3-di(adenosine-5´) triphosphate] the figure was 51.2 µM.
With `O=C(OCCCl)Oc1c(Br)cc2sc(=O)oc2c1Br` [AG205], the Kd in assay [1] (setting [4]) was 9.4 µM.
